# Data taken from patent publication US20230135635A1, “INHIBITORS OF ULK1/2 AND METHODS OF USING SAME” (SALK INSTITUTE FOR BIOLOGICAL STUDIES, priority 2020, published 2023).
# Target: T1, recombinant human ULK1 protein (1-649) (Homo sapiens, UniProt O75385)
# T1 construct: recombinant human ULK1 protein (1-649, SignalChem #U01-11G); purchased SignalChem U01-11G
# T1 sequence (O75385 1-649): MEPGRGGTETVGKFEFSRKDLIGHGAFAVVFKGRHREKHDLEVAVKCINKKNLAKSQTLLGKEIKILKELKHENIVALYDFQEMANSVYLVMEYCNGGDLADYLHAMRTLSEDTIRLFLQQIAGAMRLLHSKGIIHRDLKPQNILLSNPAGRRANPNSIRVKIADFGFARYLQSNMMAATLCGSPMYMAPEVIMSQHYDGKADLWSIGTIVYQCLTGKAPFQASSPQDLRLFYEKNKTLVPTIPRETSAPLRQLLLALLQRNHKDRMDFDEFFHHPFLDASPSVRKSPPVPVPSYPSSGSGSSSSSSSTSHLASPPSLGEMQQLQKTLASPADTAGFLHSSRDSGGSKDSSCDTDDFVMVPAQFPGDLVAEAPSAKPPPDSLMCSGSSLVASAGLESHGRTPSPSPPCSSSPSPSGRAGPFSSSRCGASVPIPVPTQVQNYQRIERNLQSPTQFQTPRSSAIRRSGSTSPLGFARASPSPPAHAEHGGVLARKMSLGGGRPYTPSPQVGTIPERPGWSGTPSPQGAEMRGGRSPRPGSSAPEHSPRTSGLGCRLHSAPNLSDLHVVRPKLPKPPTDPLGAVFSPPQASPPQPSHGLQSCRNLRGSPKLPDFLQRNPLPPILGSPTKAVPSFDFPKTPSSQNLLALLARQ
# Assay: ULK1 inhibition assay (ADP Glo)
# Type: biochemical
# Conditions: Table 1; 25 uM ATP, MBP substrate, one hour
# Description: Illustrative compounds of Formula I and related analogs are shown in Table 1 (along with their respective IC50 values for ULK1 inhibition assays). For ADP Glo assay, IC50s are represented nM, with A representing IC50<1 nM, B representing 10 nM>IC50>1 nM, and C representing IC50>10 nM. NT indicates the compound was not tested. ULK1 inhibition assays were performed in a 5 uL reaction volume containing 2 ug/mL recombinant human ULK1 protein (1-649, SignalChem #U01-11G) and 80 ug/mL myelin basic protein (MBP, Sigma-Aldrich #M1891) in the presence of 25 uM ATP (Sigma-Aldrich A7699). ULK 1 inhibition was assessed after one hour. Compounds were tested in triplicate in a 16-dose IC50 mode with 3-fold serial dilution and a starting dose of 30 uM. Staurosporine, a non-selective protein kinase inhibitor, was used in the assay as a positive control.
# According to another embodiment, the present disclosure provides methods of producing the above-defined compounds. The compounds may be synthesized using any suitable techniques. Advantageously, these compounds are conveniently synthesized from readily available starting materials. Synthetic chemistry transformations and methodologies useful in synthesizing the compounds described herein are known in the art and include, for example, those described in R. Larock, Comprehensive Organic Transformations (1989); T. W. Greene and P. G. M. Wuts, Protective Groups in Organic Synthesis, 2d. Ed. (1991); L. Fieser and M. Fieser, Fieser and Fieser's Reagents for Organic Synthesis (1994); and L. Paquette, ed., Encyclopedia of Reagents for Organic Synthesis (1995).). In general, synthesis and measurements of ULK1 inhibitory activity of the compounds described herein was performed using method analogous to those previously described in PCT International Application No. PCT/US2015/046777 which is hereby incorporated by reference in its entirety.
row,SMILES,IC50
1,"CNCC(=O)N1CCc2cc(Nc3ncc(Br)c(Nc4ccccc4C(=O)NC)n3)ccc2C1 [Compound A133, 2-{5-Bromo-2-[2-(2-methylamino-acetyl)-1,2,3,4-tetrahydro-isoquinolin-6-ylamino]-pyrimidin-4-ylamino}-N-methyl-benzamide]",> 0.01 µM
2,"CNC(=O)c1ccccc1Nc1nc(Nc2ccc3c(c2)CCN(C(=O)CCC(=O)O)C3)ncc1Br [Compound A134, 4-{6-[5-Bromo-4-(2-methylcarbamoyl-phenylamino)-pyrimidin-2-ylamino]-3,4-dihydro-1H-isoquinolin-2-yl}-4-oxo-butyric acid]",> 0.01 µM
3,"CNC(=O)c1ccccc1Nc1nc(Nc2ccc3c(c2)CCN(C)C3)ncc1Br [Compound A135, 2-[5-Bromo-2-(2-methyl-1,2,3,4-tetrahydro-isoquinolin-6-ylamino)-pyrimidin-4-ylamino]-N-methyl-benzamide]",> 0.01 µM
4,"CNC(=O)c1ccccc1Nc1nc(Nc2ccc3c(c2)CCN(C(=O)CCN)C3)ncc1Br [Compound A136, 2-{2-[2-(3-Amino-propionyl)-1,2,3,4-tetrahydro-isoquinolin-6-ylamino]-5-bromo-pyrimidin-4-ylamino}-N-methyl-benzamide]",> 0.01 µM
5,"CNC(=O)c1ccccc1Nc1nc(Nc2ccc3c(c2)CCN(CC(C)O)C3)ncc1Br (stereo not shown) [Compound A138, 2-{5-Bromo-2-[2-(2-hydroxy-propyl)-1,2,3,4-tetrahydro-isoquinolin-6-ylamino]-pyrimidin-4-ylamino}-N-methyl-benzamide]",> 0.01 µM
6,"CNC(=O)c1ccccc1Nc1nc(Nc2ccc3c(c2)CCN(S(N)(=O)=O)C3)ncc1Br [Compound A140, 2-[5-Bromo-2-(2-sulfamoyl-1,2,3,4-tetrahydro-isoquinolin-6-ylamino)-pyrimidin-4-ylamino]-N-methyl-benzamide]",> 0.01 µM
7,"CNC(=O)c1ccccc1Nc1nc(Nc2ccc3c(c2)CCN(CCC(=O)O)C3)ncc1Br [Compound A141, 3-{6-[5-Bromo-4-(2-methylcarbamoyl-phenylamino)-pyrimidin-2-ylamino]-3,4-dihydro-1H-isoquinolin-2-yl}-propionic acid]",> 0.01 µM
8,"CNC(=O)c1ccccc1Nc1nc(Nc2ccc3c(c2)CCN(CCC(N)=O)C3)ncc1Br [Compound A142, 2-{5-Bromo-2-[2-(2-carbamoyl-ethyl)-1,2,3,4-tetrahydro-isoquinolin-6-ylamino]-pyrimidin-4-ylamino}-N-methyl-benzamide]",> 0.01 µM
9,"CNC(=O)c1ccccc1Nc1nc(Nc2ccc3c(c2)CC[N+](C)(C)C3)ncc1Br [Compound A143, 6-[5-Bromo-4-(2-methylcarbamoyl-phenylamino)-pyrimidin-2-ylamino]-2,2-dimethyl-1,2,3,4-tetrahydro-isoquinolinium; iodide]",> 0.01 µM
10,"CNC(=O)c1ccccc1Nc1nc(Nc2ccc3c(c2)CCN(Cc2ccccn2)C3)ncc1Br [Compound A144, 2-[5-Bromo-2-(2-pyridin-2-ylmethyl-1,2,3,4-tetrahydro-isoquinolin-6-ylamino)-pyrimidin-4-ylamino]-N-methyl-benzamide]",> 0.01 µM
11,"CNC(=O)c1ccccc1Nc1nc(Nc2ccc3c(c2)CCN(Cc2ccncn2)C3)ncc1Br [Compound A146, 2-[5-Bromo-2-(2-pyrimidin-4-ylmethyl-1,2,3,4-tetrahydro-isoquinolin-6-ylamino)-pyrimidin-4-ylamino]-N-methyl-benzamide]",> 0.01 µM
12,"CNC(=O)c1ccccc1Nc1nc(Nc2ccc3c(c2)CNCC3)ncc1Br [Compound A147, 2-[5-Bromo-2-(1,2,3,4-tetrahydro-isoquinolin-7-ylamino)-pyrimidin-4-ylamino]-N-methyl-benzamide]",> 0.01 µM
13,"CNC(=O)c1ccccc1Nc1nc(Nc2ccc3c(c2)CN(CC(=O)N2CCOCC2)CC3)ncc1Br [Compound A148, 2-{5-Bromo-2-[2-(2-morpholin-4-yl-2-oxo-ethyl)-1,2,3,4-tetrahydro-isoquinolin-7-ylamino]-pyrimidin-4-ylamino}-N-methyl-benzamide]",> 0.01 µM
14,"CNC(=O)c1ccccc1Nc1nc(Nc2ccc3c(c2)CN(CCOC)CC3)ncc1Br [Compound A149, 2-{5-Bromo-2-[2-(2-methoxy-ethyl)-1,2,3,4-tetrahydro-isoquinolin-7-ylamino]-pyrimidin-4-ylamino}-N-methyl-benzamide]",> 0.01 µM
15,"CNC(=O)c1ccccc1Nc1nc(Nc2ccc3c(c2)CN(C(=O)N2CCN(C)CC2)CC3)ncc1Br [Compound A150, 2-{5-Bromo-2-[2-(4-methyl-piperazine-1-carbonyl)-1,2,3,4-tetrahydro-isoquinolin-7-ylamino]-pyrimidin-4-ylamino}-N-methyl-benzamide]",> 0.01 µM
16,"CNC(=O)c1ccccc1Nc1nc(Nc2ccc3c(c2)CN(CCN)CC3)ncc1Br [Compound A151, 2-{2-[2-(2-Amino-ethyl)-1,2,3,4-tetrahydro-isoquinolin-7-ylamino]-5-bromo-pyrimidin-4-ylamino}-N-methyl-benzamide]",> 0.01 µM
17,"CNC(=O)c1ccccc1Nc1nc(Nc2ccc3c(c2)CN(C(=O)CN)CC3)ncc1Br [Compound A152, 2-{2-[2-(2-Amino-acetyl)-1,2,3,4-tetrahydro-isoquinolin-7-ylamino]-5-bromo-pyrimidin-4-ylamino}-N-methyl-benzamide]",> 0.01 µM

# Results, then the compound that gave them:
row,IC50,SMILES
1,> 0.01 µM,"CNC(=O)c1ccccc1Oc1nc(Nc2ccc3c(c2)CCN(CCOC)C3)ncc1Br [Compound A125, 2-((5-Bromo-2-((2-(2-methoxyethyl)-1,2,3,4-tetrahydroisoquinolin-6-yl)amino)pyrimidin-4-yl)oxy)-N-methylbenzamide]"
2,> 0.01 µM,"CNC(=O)c1ccccc1Nc1nc(Nc2ccc3c(c2)CCNC3)ncc1Br [Compound A126, 2-[5-Bromo-2-(1,2,3,4-tetrahydro-isoquinolin-6-ylamino)-pyrimidin-4-ylamino]-N-methyl-benzamide]"
3,> 0.01 µM,"CNC(=O)c1ccccc1Nc1nc(Nc2ccc3c(c2)CCN(CC(=O)N2CCOCC2)C3)ncc1Br [Compound A127, 2-{5-Bromo-2-[2-(2-morpholin-4-yl-2-oxo-ethyl)-1,2,3,4-tetrahydro-isoquinolin-6-ylamino]-pyrimidin-4-ylamino}-N-methyl-benzamide]"
4,> 0.01 µM,"CNC(=O)c1ccccc1Nc1nc(Nc2ccc3c(c2)CCN(C(=O)N2CCN(C)CC2)C3)ncc1Br [Compound A128, 2-{5-Bromo-2-[2-(4-methyl-piperazine-1-carbonyl)-1,2,3,4-tetrahydro-isoquinolin-6-ylamino]-pyrimidin-4-ylamino}-N-methyl-benzamide]"
5,> 0.01 µM,"CNC(=O)c1ccccc1Nc1nc(Nc2ccc3c(c2)CCN(Cc2ccc(OC)cc2)C3)ncc1Br [Compound A129, 2-{5-Bromo-2-[2-(4-methoxy-benzyl)-1,2,3,4-tetrahydro-isoquinolin-6-ylamino]-pyrimidin-4-ylamino}-N-methyl-benzamide]"
6,> 0.01 µM,"CNC(=O)c1ccccc1Nc1nc(Nc2ccc3c(c2)CCN(Cc2cccnc2)C3)ncc1Br [Compound A130, 2-[5-Bromo-2-(2-pyridin-3-ylmethyl-1,2,3,4-tetrahydro-isoquinolin-6-ylamino)-pyrimidin-4-ylamino]-N-methyl-benzamide]"
7,> 0.01 µM,"CNC(=O)c1ccccc1Nc1nc(Nc2ccc3c(c2)CCN(Cc2ccncc2)C3)ncc1Br [Compound A131, 2-[5-Bromo-2-(2-pyridin-4-ylmethyl-1,2,3,4-tetrahydro-isoquinolin-6-ylamino)-pyrimidin-4-ylamino]-N-methyl-benzamide]"
8,> 0.01 µM,"CNC(=O)c1ccccc1Nc1nc(Nc2ccc3c(c2)CCN(C(=O)CN)C3)ncc1Br [Compound A132, 2-{2-[2-(2-Amino-acetyl)-1,2,3,4-tetrahydro-isoquinolin-6-ylamino]-5-bromo-pyrimidin-4-ylamino}-N-methyl-benzamide]"
